Test: xn = mol fraction of the nth substance listed

Nc1ccccc1 + CCC(C)O
303 K, 101.33 kPa
Details	viscosity [mPa·s]
x1 = 0.1	2.052
x1 = 0.2	1.978
x1 = 0.3	1.954
x1 = 0.4	1.944
x1 = 0.5	2.076
x1 = 0.6	2.156
x1 = 0.8	2.504
x1 = 0.9	2.835

COCCOCCOCCO + O=C1CCCN1
298.15 K, 101 kPa
Details	viscosity [mPa·s]
x1 = 0.0024	14.16
x1 = 0.0071	13.98
x1 = 0.0099	13.92
x1 = 0.0137	13.86
x1 = 0.026	13.66
x1 = 0.0397	13.43
x1 = 0.0605	13.11
x1 = 0.085	12.74
x1 = 0.1404	12.01
x1 = 0.1689	11.65
x1 = 0.2026	11.29
x1 = 0.24	10.92
x1 = 0.2913	10.46
x1 = 0.3429	10.04
x1 = 0.3916	9.679
x1 = 0.4401	9.334
x1 = 0.4897	9.091
x1 = 0.5674	8.598
x1 = 0.6133	8.347
x1 = 0.6641	8.188
x1 = 0.7172	7.889
x1 = 0.7708	7.642
x1 = 0.8177	7.419
x1 = 0.8659	7.145
x1 = 0.9053	6.89
x1 = 0.9402	6.677
x1 = 0.9788	6.466
x2 = 0.009	6.323

Nc1ccccc1 + CC(=O)O
viscosity [mPa·s]
Details	298.15 K	308.15 K	323.15 K
101.3 kPa, x1 = 0.0382	2.15	1.72	1.27
101.3 kPa, x1 = 0.0652	3.65	2.72	1.83
101.3 kPa, x1 = 0.0972	5.78	4.07	2.51
101.3 kPa, x1 = 0.132	8.79	5.69	3.26
101.3 kPa, x1 = 0.186	14.2	8.51	4.27
101.3 kPa, x1 = 0.229	18.5	10.5	5.14
101.3 kPa, x1 = 0.257	20.3	11.4	5.4
101.3 kPa, x1 = 0.286	20.8	11.6	5.52
101.3 kPa, x1 = 0.3	21.2	11.8	5.58
101.3 kPa, x1 = 0.333	20.5	11.6	5.43
101.3 kPa, x1 = 0.35	20.1	11.1	5.33
101.3 kPa, x1 = 0.377	19	10.7	5.16
101.3 kPa, x1 = 0.425	15.9	9.01	4.61
101.3 kPa, x1 = 0.497	13.5	7.7	4.03
101.3 kPa, x1 = 0.546	10.7	6.51	3.6
101.3 kPa, x1 = 0.675	6.68	4.48	–
101.3 kPa, x1 = 0.799	5.08	3.61	2.39
101.3 kPa, x1 = 0.86	4.57	3.3	2.25
101.33 kPa, x1 = 0.1058	7.29	–	2.96
101.33 kPa, x1 = 0.1746	12.3	–	–
101.33 kPa, x1 = 0.2824	21.9	–	5.65
101.33 kPa, x1 = 0.3086	21.4	–	5.58
101.33 kPa, x1 = 0.3408	20.3	–	5.23
101.33 kPa, x1 = 0.3878	18.1	–	–
101.33 kPa, x1 = 0.5159	11.8	–	3.82

CCC(O)CO (configuration not stated) + CC(C)CO
viscosity [mPa·s], 100 kPa
Details	x2 = 0.1	x2 = 0.201	x2 = 0.3	x2 = 0.4	x2 = 0.5	x2 = 0.6	x2 = 0.698	x2 = 0.8	x2 = 0.899
298.15 K	37.85	28.47	21.1	15.45	10.88	7.762	6.307	5.182	3.998
303.15 K	28.29	21.56	16.11	12.08	8.609	6.351	5.187	4.312	3.375
308.15 K	21.44	16.65	12.67	9.596	7.019	5.289	4.334	3.62	2.873
313.15 K	16.62	13.03	10.31	7.809	5.758	4.449	3.635	3.062	2.473
318.15 K	13.08	10.42	8.093	6.339	4.851	3.692	3.08	2.621	2.141
323.15 K	10.47	8.442	6.689	5.231	3.969	3.154	2.639	2.253	1.855

CN(CCO)CCO + CCCCn1cc[n+](C)c1.F[B-](F)(F)F
Details	viscosity [mPa·s]
323.15 K, 101 kPa, x2 = 0.6997	20.65

COCCOCCOCCOC + COC(C)=O
viscosity [mPa·s], 101.3 kPa
Details	298.15 K	308.15 K	318.15 K
x1 = 0.022	0.398	0.352	0.33
x1 = 0.0473	0.424	0.378	0.352
x1 = 0.0717	0.455	0.404	0.373
x1 = 0.1255	0.527	0.465	0.425
x1 = 0.1838	0.61	0.534	0.478
x1 = 0.2145	0.649	0.561	0.512
x1 = 0.236	0.676	0.58	0.528
x1 = 0.2557	0.709	0.616	0.549
x1 = 0.3143	0.802	0.687	0.611
x1 = 0.4027	0.943	0.802	0.699
x1 = 0.4806	1.07	0.905	0.783
x1 = 0.5743	1.234	1.031	0.883
x1 = 0.6289	1.326	1.1	0.942
x1 = 0.6511	1.367	1.13	0.964
x1 = 0.7138	1.474	1.215	1.031
x1 = 0.7667	1.566	1.286	1.086
x1 = 0.7792	1.593	1.308	1.1
x1 = 0.8702	1.743	1.426	1.195
x1 = 0.9014	1.805	1.472	1.225
x1 = 0.9571	1.891	1.548	1.278
x2 = 0.0137	1.936	1.584	1.306

Nc1ccccc1 + O=[N+]([O-])c1ccccc1
298.15 K, 101 kPa
Details	viscosity [mPa·s]
x2 = 0.1216	3.163
x2 = 0.2269	2.741
x2 = 0.4	2.328
x2 = 0.5602	2.082
x2 = 0.6878	1.949
x2 = 0.8353	1.889
x2 = 0.9171	1.836

CCCC(=O)OC + c1ccccc1
viscosity [mPa·s], 101 kPa
Details	x2 = 0.1316	x2 = 0.1994	x2 = 0.2999	x2 = 0.3974	x2 = 0.5001	x2 = 0.6023	x2 = 0.7044	x2 = 0.7999	x2 = 0.8939
298.15 K	0.536	0.534	0.535	0.536	0.54	0.544	0.551	0.561	0.575
313.15 K	0.451	0.45	0.45	0.451	0.453	0.456	0.46	0.466	0.476

COCCOCCOCCOC + ClCCl
298.15 K, 101 kPa
Details	viscosity [mPa·s]
x1 = 0.0122	0.436
x1 = 0.0214	0.451
x1 = 0.043	0.496
x1 = 0.0736	0.575
x1 = 0.1008	0.621
x1 = 0.159	0.752
x1 = 0.2062	0.868
x1 = 0.2482	0.96
x1 = 0.3121	1.078
x1 = 0.3987	1.247
x1 = 0.4705	1.371
x1 = 0.5389	1.476
x1 = 0.5879	1.549
x1 = 0.6389	1.645
x1 = 0.6782	1.669
x1 = 0.7651	1.787
x1 = 0.803	1.823
x1 = 0.8785	1.897
x1 = 0.9474	1.92

Nc1ccccc1 + CN(C)C=O
viscosity [mPa·s], 101.33 kPa
Details	x2 = 0.1013	x2 = 0.203	x2 = 0.3061	x2 = 0.4006	x2 = 0.5013	x2 = 0.6024	x2 = 0.6967	x2 = 0.8002	x2 = 0.9059
303.15 K	2.783	2.508	2.273	2.048	1.812	1.571	1.341	1.115	0.908
313.15 K	2.131	1.957	1.793	1.64	1.474	1.3	1.135	0.96	0.801

COCCOCCOCCO + CCCN
298.15 K, 101 kPa
Details	viscosity [mPa·s]
x1 = 0.0053	0.369
x1 = 0.0087	0.378
x1 = 0.0251	0.415
x1 = 0.0368	0.44
x1 = 0.068	0.514
x1 = 0.081	0.549
x1 = 0.105	0.617
x1 = 0.1254	0.682
x1 = 0.1752	0.861
x1 = 0.2146	1.034
x1 = 0.2627	1.279
x1 = 0.2934	1.456
x1 = 0.3347	1.724
x1 = 0.3651	1.935
x1 = 0.4217	2.362
x1 = 0.471	2.749
x1 = 0.5445	3.35
x1 = 0.574	3.599
x1 = 0.6281	4.032
x1 = 0.6683	4.359
x1 = 0.7088	4.66
x1 = 0.7716	5.104
x1 = 0.812	5.359
x1 = 0.8595	5.626
x1 = 0.8867	5.774
x1 = 0.9185	5.92

ClCc1ccccc1 + c1ccccc1
viscosity [mPa·s], 101 kPa
Details	x2 = 0.1988	x2 = 0.3583	x2 = 0.489	x2 = 0.5982	x2 = 0.6907	x2 = 0.7701	x2 = 0.839	x2 = 0.8993	x2 = 0.9526
298.15 K	0.9856	0.8952	0.8251	0.7742	0.7152	0.6823	0.6598	0.6485	0.6042
303.15 K	0.9782	0.8724	0.8024	0.7153	0.6942	0.6324	0.6248	0.5923	0.5634
308.15 K	0.9265	0.8258	0.7865	0.7026	0.6294	0.6058	0.5861	0.5592	0.5389
313.15 K	0.9357	0.8562	0.7548	0.6994	0.6241	0.5826	0.5742	0.5486	0.5095

Oc1ccc2ccccc2c1 + CCCO
viscosity [mPa·s], 101 kPa
Details	x1 = 0.04	x1 = 0.08	x1 = 0.12	x1 = 0.16	x1 = 0.2
293.15 K	2.6	3.004	3.529	4.172	4.954
303.15 K	2.025	2.288	2.658	3.1	3.63
313.15 K	1.635	1.803	2.062	2.37	2.764
323.15 K	1.326	1.447	1.636	1.869	2.168

Nc1ccccc1 + CCCCCCO
viscosity [mPa·s], 100 kPa
Details	293.15 K	303.15 K	313.15 K	323.15 K
x1 = 0.0816	4.79	3.54	2.65	2.05
x1 = 0.1448	–	3.327	2.396	–
x1 = 0.1533	4.4	3.29	2.48	1.92
x1 = 0.2422	4.1	3.09	2.33	1.82
x1 = 0.2758	–	2.857	1.969	–
x1 = 0.3514	3.81	2.87	2.21	1.73
x1 = 0.4176	–	2.453	1.627	–
x1 = 0.4449	3.64	2.74	2.12	1.66
x1 = 0.5246	–	2.213	1.457	–
x1 = 0.5571	3.55	2.61	2.04	1.61
x1 = 0.6037	–	2.119	1.397	–
x1 = 0.6483	3.52	2.59	2.03	1.61
x1 = 0.7131	–	2.101	1.432	–
x1 = 0.7361	3.55	2.61	2.05	1.63
x1 = 0.8283	–	2.283	1.639	–
x1 = 0.8542	3.73	2.72	2.16	1.71
x1 = 0.932	–	2.648	1.979	–
x1 = 0.9356	4.03	2.93	2.32	1.84

CC(C)(C)O + CCO
303.2 K, 101.33 kPa
Details	viscosity [mPa·s]
x2 = 0.05	3.256
x2 = 0.1	3.156
x2 = 0.15	3.039
x2 = 0.2	2.914
x2 = 0.3	2.645
x2 = 0.4	2.36
x2 = 0.5	2.07
x2 = 0.6	1.793
x2 = 0.7	1.548
x2 = 0.8	1.336
x2 = 0.85	1.239
x2 = 0.9	1.147
x2 = 0.95	1.059

Source: the CheMixHub viscosity set
